# Patent publication US20220249447A1, “CF3-, OCF3-, SCF3-, and SF5-Containing Antibacterial Agents” (Purdue Research Foundation, priority 2019, published 2022)
# Read-outs that look alike come from different tables or passages of the source.
# What was measured:
# [1] = tested on: S. aureus; assay: MIC, broth microdilution, S. aureus; format: cell-based; details: Staphylococcus aureus
# Experimental: (§1) Bacteria were cultured in cation-adjusted Mueller Hinton Broth (for strains in Tables 1-3) or Brain Heart Infusion broth (for Enterococcus faecium) or Tryptic Soy Broth (all other bacteria) in a 96-well plate at 37° C. for at least 20 hours. The MIC was classified as the lowest concentration where no visual growth of bacteria was observed. The minimum bactericidal concentration (MBC) was tested by spotting 4 μL from wells with no growth onto Tryptic Soy Agar (TSA) plates. Plates were incubated at 37° C. for at least 18 hours before recording the MBC.
# [2] = tested on: MRSA ATCC 33592; assay: MIC, broth microdilution, MRSA ATCC 33592; format: cell-based, methicillin-resistant S. aureus; details: Staphylococcus aureus
# Experimental: All MRSA isolates were acquired from BEI Resources. The remaining bacteria were purchased from the American Type Culture Collection (ATCC).
# as §1
# [3] = tested on: C. difficile ATCC BAA 1801; assay: MIC against C. difficile ATCC BAA 1801; format: cell-based
# Experimental: as §1
# [4] = tested on: Neisseria gonorrhea strain 181; assay: MIC against Neisseria gonorrhea strain 181; format: cell-based
# Experimental: as §1
# [5] = tested on: MRSA USA300 cells; assay: Time-kill assay; format: cell-based
# Experimental: The time-kill analysis was performed as previously described^29. […] Aliquots (100 μL) were collected from each treatment after 0, 2, 4, 8, 12, and 24 hours of incubation at 37° C. and subsequently serially diluted in phosphate-buffered saline (PBS). Bacteria were then transferred to TSA plates and incubated at 37° C. for 18-20 hours before viable CFU/mL was determined (see FIG. 2).
# [6] = tested on: C. difficile NR-13432 (isolate 6); assay: MIC against C. difficile NR-13432 (isolate 6); format: cell-based; details: Clostridioides difficile, read-out: MIC C. difficile NR-13432 (isolate 6)
# Experimental: as §1
# [7] = tested on: C. difficile NR-13435 (isolate 9); assay: MIC against C. difficile NR-13435 (isolate 9); format: cell-based; details: Clostridioides difficile, read-out: MIC C. difficile NR-13435 (isolate 9)
# Experimental: as §1
# [8] = tested on: C. difficile NR-32883 (P2); assay: MIC against C. difficile NR-32883 (P2); format: cell-based; details: Clostridioides difficile, read-out: MIC C. difficile NR-32883 (P2)
# Experimental: as §1
# [9] = tested on: C. difficile NR-32891 (P13); assay: MIC against C. difficile NR-32891 (P13); format: cell-based; details: Clostridioides difficile, read-out: MIC C. difficile NR-32891 (P13)
# Experimental: as §1
# [10] = tested on: C. difficile NR-32895 (P19); assay: MIC against C. difficile NR-32895 (P19); format: cell-based; details: Clostridioides difficile, read-out: MIC C. difficile NR-32895 (P19)
# Experimental: as §1
# [11] = tested on: C. difficile NR-32904 (P30); assay: MIC against C. difficile NR-32904 (P30); format: cell-based; details: Clostridioides difficile, read-out: MIC C. difficile NR-32904 (P30)
# Experimental: as §1
# [12] = tested on: C. difficile ATCC 43255; assay: MIC against C. difficile ATCC 43255; format: cell-based; details: Clostridioides difficile, ATCC43255, read-out: MIC C. difficile ATCC 43255
# Experimental: as §1
# [13] = Clostridioides difficile, BAA1801; read-out: MIC C. difficile ATCC BAA 1801
Structure (SMILES),MIC [1],MIC [2],"MIC [3, 13]",MIC [4],other results
"CC(=O)NC[C@H]1CN(c2ccc(N3CCOCC3)c(F)c2)C(=O)O1 [Linezolid, reference compound]",,,,,"Bactericidal/Bacteriostatic [5]: Bacteriostatic; Δlog2 CFU/mL ([5]; MRSA USA300, 3× MIC or 6× MIC, up to 24 hours): 1.7"
"CN(C)[C@@H]1C(O)=C(C(N)=O)C(=O)[C@@]2(O)C(O)=C3C(=O)c4c(O)cccc4[C@@](C)(O)[C@H]3C[C@@H]12 [Tetracycline, reference compound]",,,,2 µg/mL,
"CN[C@H](CC(C)C)C(=O)N[C@H]1C(=O)N[C@@H](CC(N)=O)C(=O)N[C@H]2C(=O)N[C@H]3C(=O)N[C@H](C(=O)N[C@H](C(=O)O)c4cc(O)cc(O)c4-c4cc3ccc4O)[C@H](O)c3ccc(c(Cl)c3)Oc3cc2cc(c3O[C@@H]2O[C@H](CO)[C@@H](O)[C@H](O)[C@H]2O[C@H]2C[C@](C)(N)[C@H](O)[C@H](C)O2)Oc2ccc(cc2Cl)[C@H]1O [Vancomycin, reference compound]",,,,,"MIC [6]: 0.25 µg/mL; MIC [7]: 1 µg/mL; MIC [8]: 0.5 µg/mL; MIC [9]: 0.5 µg/mL; MIC [10]: 1 µg/mL; MIC [11]: 1 µg/mL; MIC [12]: 1 µg/mL; MIC ([3]; Clostridioides difficile, BAA1801, read-out: MIC C. difficile ATCC BAA 1801): 1 µg/mL; Bactericidal/Bacteriostatic [5]: Bactericidal"

# More lines, main results first:
MIC [1],MIC [2],"MIC [3, 13]",MIC [4],Structure (SMILES),other results
0.5 µg/mL,0.5 µg/mL,0.015 µg/mL,0.125 µg/mL,"O=C(Nc1nnc(-c2cccc(Cl)c2)o1)c1ccc(SC(F)(F)F)nc1 [HSGN-247, N-(5-(3-chlorophenyl)-1,3,4-oxadiazol-2-yl)-6-((trifluoromethyl)thio)nicotinamide]",
0.5 µg/mL,0.25 µg/mL,0.015 µg/mL,> 128 µg/mL,"O=C(Nc1nnc(-c2ccc(Cl)cc2Cl)o1)c1ccc(SC(F)(F)F)cc1 [HSGN-248, N-(5-(2,4-dichlorophenyl)-1,3,4-oxadiazol-2-yl)-4-((trifluoromethyl)thio)benzamide]",
0.25 µg/mL,0.125 µg/mL,,2 µg/mL,"O=C(Nc1nnc(-c2cccc(C(F)(F)F)c2)o1)c1ccc(SC(F)(F)F)cc1 [HSGN-253, N-(5-(3-(trifluoromethyl)phenyl)-1,3 ,4-oxadiazol-2-yl)-4-((trifluoromethyl)thio)benzamide]",
0.0625 µg/mL,0.0313 µg/mL,< 0.003 µg/mL,1 µg/mL,"O=C(Nc1nnc(-c2cccc(Cl)c2)o1)c1ccc(S(F)(F)(F)(F)F)cc1 [HSGN-259, N-(5-(3-chlorophenyl)-1,3,4-oxadiazol-2-yl)-4-(pentafluoro-k6-sulfaneyl)benzamide]",
0.0625 µg/mL,0.0625 µg/mL,,2 µg/mL,"COc1c(Cl)cc(-c2nnc(NC(=O)c3ccc(SC(F)(F)F)cc3)o2)cc1Cl [HSGN-265, N-(5-(3,5-dichloro-4-methoxyphenyl)-1,3,4-oxadiazol-2-yl)-4-((trifluoromethyl)thio)benzamide]",
